Experimental findings from patent US20260184693A1, “INHIBITORS OF SOLUTE CARRIER FAMILY 6A MEMBER 19 (SLC6A19) AND METHODS OF USE THEREOF” (Maze Therapeutics, Inc., priority 2022, published 2026) are described below.

The structures appear in SMILES notation.

This experiment concerns the target T1, human SLC6A19 (Homo sapiens, UniProt Q695T7).
T1 construct: expressed in transfected cells
T1 sequence (Q695T7 1-634): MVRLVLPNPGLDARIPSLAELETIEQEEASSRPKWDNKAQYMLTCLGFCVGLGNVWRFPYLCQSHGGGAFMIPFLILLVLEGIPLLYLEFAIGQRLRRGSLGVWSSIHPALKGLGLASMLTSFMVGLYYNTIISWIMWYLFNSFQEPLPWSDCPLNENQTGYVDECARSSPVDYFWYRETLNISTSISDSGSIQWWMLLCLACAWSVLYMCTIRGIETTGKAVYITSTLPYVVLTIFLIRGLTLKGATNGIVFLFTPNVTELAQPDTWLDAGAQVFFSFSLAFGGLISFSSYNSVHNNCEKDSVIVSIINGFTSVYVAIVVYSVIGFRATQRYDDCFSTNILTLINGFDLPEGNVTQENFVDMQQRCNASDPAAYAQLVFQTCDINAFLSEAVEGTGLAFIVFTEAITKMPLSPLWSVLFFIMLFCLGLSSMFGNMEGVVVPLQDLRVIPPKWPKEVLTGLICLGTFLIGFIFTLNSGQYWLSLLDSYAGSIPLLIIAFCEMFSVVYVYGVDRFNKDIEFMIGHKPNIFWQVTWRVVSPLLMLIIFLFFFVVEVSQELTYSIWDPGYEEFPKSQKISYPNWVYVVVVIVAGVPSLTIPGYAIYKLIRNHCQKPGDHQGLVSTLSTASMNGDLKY
T1 sequence (Q9HBJ8 15-222 partner): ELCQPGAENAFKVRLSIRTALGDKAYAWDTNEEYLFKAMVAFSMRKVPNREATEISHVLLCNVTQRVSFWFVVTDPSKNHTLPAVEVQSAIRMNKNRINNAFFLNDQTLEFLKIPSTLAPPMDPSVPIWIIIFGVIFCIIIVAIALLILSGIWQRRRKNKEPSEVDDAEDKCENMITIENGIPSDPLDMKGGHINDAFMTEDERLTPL
Kind of experiment: Example B2: 13C6,15N-isoleucine uptake, RapidFire mass spectrometry, in CHO cells with doxycycline-inducible expression of human SLC6A19 and TMEM27. The conditions noted are these: read-out: SLC6A19_RapidFire Uptake Assay IC50. Format: cell-based. In short, it runs like this:
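Labelled isoleucine (13C6,15N; 2 mM added) was given 20 min at 37 °C, following a 20-min compound pre-treatment (10-point 2-fold series, duplicate). Cells were doxycycline-induced CHO co-expressing human SLC6A19 and TMEM27. Intracellular label was quantified by RapidFire-MS peak areas against a 13C-leucine standard.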

Take `CN(C(=O)NCc1cc2cc(Cl)ccc2[nH]1)[C@@H]1CCCN(C(=O)CCNC(N)=O)C1` [Compound 73, (R)-3-((5-chloro-1H-indol-2-yl)methyl)-1-methyl-1-(1-(3-ureidopropanoyl)piperidin-3-yl)urea]: the IC50 (in general, the concentration that inhibits the measured activity by half) is 897 nM.

Turning to `CN(C(=O)NCc1cc2cc(Cl)ccc2[nH]1)[C@@H]1CCCN(C(=O)c2cccn3cnnc23)C1` [Compound 74, (R)-1-(1-([1,2,4]triazolo[4,3-a]pyridine-8-carbonyl)piperidin-3-yl)-3-((5-chloro-1H-indol-2-yl)methyl)-1-methylurea], the IC50 was found to be 2540 nM.

On to `CN(C(=O)NCc1cc2cc(Cl)ccc2[nH]1)[C@@H]1CCCN(C(=O)C2CCC(=O)C2)C1` (stereo partly drawn) [Compound 75, 3-((5-chloro-1H-indol-2-yl)methyl)-1-methyl-1-((3R)-1-(3-oxocyclopentane-1-carbonyl)piperidin-3-yl)urea], for which the IC50 amounted to 1750 nM.

Take `CN(C(=O)NCc1cc2cc(Cl)ccc2[nH]1)[C@@H]1CCCN(C(=O)c2ccn3ccnc3c2)C1` [Compound 76, (R)-3-((5-chloro-1H-indol-2-yl)methyl)-1-(1-(imidazo[1,2-a]pyridine-7-carbonyl)piperidin-3-yl)-1-methylurea]: the half-maximal inhibitory concentration (IC50) was found to be 1000 nM.

Consider `Cc1cc(C(=O)N2CCC[C@@H](N(C)C(=O)NCc3cc4cc(Cl)ccc4[nH]3)C2)n(C)n1` [Compound 77, (R)-3-((5-chloro-1H-indol-2-yl)methyl)-1-(1-(1,3-dimethyl-1H-pyrazole-5-carbonyl)piperidin-3-yl)-1-methylurea], for which the IC50 was 6570 nM.

On to `COc1ccc(C(=O)N2CCC[C@@H](N(C)C(=O)NCc3cc4cc(Cl)ccc4[nH]3)C2)nc1` [Compound 78, (R)-3-((5-chloro-1H-indol-2-yl)methyl)-1-(1-(5-methoxypicolinoyl)piperidin-3-yl)-1-methylurea], for which the IC50 is 1760 nM.

On to `COC(C)(C)C(=O)N1CCC[C@@H](N(C)C(=O)NCc2cc3cc(Cl)ccc3[nH]2)C1` [Compound 79, (R)-3-((5-chloro-1H-indol-2-yl)methyl)-1-(1-(2-methoxy-2-methylpropanoyl)piperidin-3-yl)-1-methylurea], for which the IC50 was 5630 nM.

Turning to `CN(C(=O)NCc1cc2cc(Cl)ccc2[nH]1)[C@@H]1CCCN(C(=O)CC(C)(C)O)C1` [Compound 80, (R)-3-((5-chloro-1H-indol-2-yl)methyl)-1-(1-(3-hydroxy-3-methylbutanoyl)piperidin-3-yl)-1-methylurea], the IC50 came out at 5650 nM.

Turning to `CN(C(=O)NCc1cc2cc(Cl)ccc2[nH]1)[C@@H]1CCCN(C(=O)Cn2ccccc2=O)C1` [Compound 81, (R)-3-((5-chloro-1H-indol-2-yl)methyl)-1-methyl-1-(1-(2-(2-oxopyridin-1(2H)-yl)acetyl)piperidin-3-yl)urea], the IC50 is 1410 nM.

With `COCC(C)C(=O)N1CCC[C@@H](N(C)C(=O)NCc2cc3cc(Cl)ccc3[nH]2)C1` (stereo partly drawn) [Compound 82, 3-((5-chloro-1H-indol-2-yl)methyl)-1-((3R)-1-(3-methoxy-2-methylpropanoyl)piperidin-3-yl)-1-methylurea], the IC50 came to 3810 nM.

`CN(C(=O)NCc1cc2cc(Cl)ccc2[nH]1)[C@@H]1CCCN(C(=O)COc2ccc(=O)[nH]n2)C1` [Compound 83, (R)-3-((5-chloro-1H-indol-2-yl)methyl)-1-methyl-1-(1-(2-((6-oxo-1,6-dihydropyridazin-3-yl)oxy)acetyl)piperidin-3-yl)urea]: the IC50 was determined as 4790 nM.

In the case of `CN(C(=O)NCc1cc2cc(Cl)ccc2[nH]1)[C@@H]1CCCN(C(=O)C2CCCC2)C1` [Compound 84, (R)-3-((5-chloro-1H-indol-2-yl)methyl)-1-(1-(cyclopentanecarbonyl)piperidin-3-yl)-1-methylurea], the IC50 came to 176 nM.

As for `Cc1ccn(CC(=O)N2CCC[C@@H](N(C)C(=O)NCc3cc4cc(Cl)ccc4[nH]3)C2)n1` [Compound 85, (R)-3-((5-chloro-1H-indol-2-yl)methyl)-1-methyl-1-(1-(2-(3-methyl-1H-pyrazol-1-yl)acetyl)piperidin-3-yl)urea], the IC50 was determined as 369 nM.

As to `CN(C(=O)NCc1cc2cc(Cl)ccc2[nH]1)[C@@H]1CCCN(C(=O)Cc2cnn(C)c2)C1` [Compound 86, (R)-3-((5-chloro-1H-indol-2-yl)methyl)-1-methyl-1-(1-(2-(1-methyl-1H-pyrazol-4-yl)acetyl)piperidin-3-yl)urea], the IC50 came to 559 nM.

Consider `COc1ncc(C(=O)N2CCC[C@@H](N(C)C(=O)NCc3cc4cc(Cl)ccc4[nH]3)C2)cc1F` [Compound 87, (R)-3-((5-chloro-1H-indol-2-yl)methyl)-1-(1-(5-fluoro-6-methoxynicotinoyl)piperidin-3-yl)-1-methylurea], for which the IC50 was 1670 nM.

In the case of `CC(=O)NC(C)C(=O)N1CCC[C@@H](N(C)C(=O)NCc2cc3cc(Cl)ccc3[nH]2)C1` (stereo partly drawn) [Compound 88, N-(1-((R)-3-(3-((5-chloro-1H-indol-2-yl)methyl)-1-methylureido)piperidin-1-yl)-1-oxopropan-2-yl)acetamide], the IC50 is 4080 nM.

On to `CC(=O)NCCC(=O)N1CCC[C@@H](N(C)C(=O)NCc2cc3cc(Cl)ccc3[nH]2)C1` [Compound 89, (R)-N-(3-(3-(3-((5-chloro-1H-indol-2-yl)methyl)-1-methylureido)piperidin-1-yl)-3-oxopropyl)acetamide], for which the IC50 stood at 1080 nM.

`COCc1oncc1C(=O)N1CCC[C@@H](N(C)C(=O)NCc2cc3cc(Cl)ccc3[nH]2)C1` [Compound 90, (R)-3-((5-chloro-1H-indol-2-yl)methyl)-1-(1-(5-(methoxymethyl)isoxazole-4-carbonyl)piperidin-3-yl)-1-methylurea]: the IC50 amounted to 13500 nM.

In the case of `CN(C(=O)NCc1cc2cc(Cl)ccc2[nH]1)[C@@H]1CCCN(C(=O)CCn2cccn2)C1` [Compound 91, (R)-1-(1-(3-(1H-pyrazol-1-yl)propanoyl)piperidin-3-yl)-3-((5-chloro-1H-indol-2-yl)methyl)-1-methylurea], the IC50 stood at 1810 nM.

As for `COCC1(C(=O)N2CCC[C@@H](N(C)C(=O)NCc3cc4cc(Cl)ccc4[nH]3)C2)CC1` [Compound 92, (R)-3-((5-chloro-1H-indol-2-yl)methyl)-1-(1-(1-(methoxymethyl)cyclopropane-1-carbonyl)piperidin-3-yl)-1-methylurea], the IC50 was 8990 nM.

Consider `CN(C(=O)NCc1cc2cc(Cl)ccc2[nH]1)[C@@H]1CCCN(C(=O)C2CCCCO2)C1` (stereo partly drawn) [Compound 93, 3-((5-chloro-1H-indol-2-yl)methyl)-1-methyl-1-((3R)-1-(tetrahydro-2H-pyran-2-carbonyl)piperidin-3-yl)urea], for which the IC50 was 1630 nM.

In the case of `CN(C(=O)NCc1cc2cc(Cl)ccc2[nH]1)[C@@H]1CCCN(C(=O)CN2CCCC2=O)C1` [Compound 94, (R)-3-((5-chloro-1H-indol-2-yl)methyl)-1-methyl-1-(1-(2-(2-oxopyrrolidin-1-yl)acetyl)piperidin-3-yl)urea], the IC50 was 2750 nM.

Consider `CN(C(=O)NCc1cc2cc(Cl)ccc2[nH]1)[C@@H]1CCCN(C(=O)C2CCOCC2)C1` [Compound 95, (R)-3-((5-chloro-1H-indol-2-yl)methyl)-1-methyl-1-(1-(tetrahydro-2H-pyran-4-carbonyl)piperidin-3-yl)urea], for which the IC50 was 3240 nM.

Regarding `CC(=O)N1CC(C(=O)N2CCC[C@@H](N(C)C(=O)NCc3cc4cc(Cl)ccc4[nH]3)C2)C1` [Compound 96, (R)-1-(1-(1-acetylazetidine-3-carbonyl)piperidin-3-yl)-3-((5-chloro-1H-indol-2-yl)methyl)-1-methylurea], the IC50 is 933 nM.

In the case of `CN(C(=O)NCc1cc2cc(Cl)ccc2[nH]1)[C@@H]1CCCN(C(=O)C2(O)CCCC2)C1` [Compound 97, (R)-3-((5-chloro-1H-indol-2-yl)methyl)-1-(1-(1-hydroxycyclopentane-1-carbonyl)piperidin-3-yl)-1-methylurea], the IC50 came out at 1340 nM.

For the compound `CN(C(=O)NCc1cc2cc(Cl)ccc2[nH]1)[C@@H]1CCCN(C(=O)CC2(O)CCC2)C1` [Compound 98, (R)-3-((5-chloro-1H-indol-2-yl)methyl)-1-(1-(2-(1-hydroxycyclobutyl)acetyl)piperidin-3-yl)-1-methylurea], the IC50 stood at 3000 nM.

As for `CN(C(=O)NCc1cc2cc(Cl)ccc2[nH]1)[C@@H]1CCCN(C(=O)C2CC(C)(O)C2)C1` (stereo partly drawn) [Compound 99, (R)-3-((5-chloro-1H-indol-2-yl)methyl)-1-(1-(3-hydroxy-3-methylcyclobutane-1-carbonyl)piperidin-3-yl)-1-methylurea], the IC50 is 745 nM.

On to `CN(C(=O)NCc1cc2cc(Cl)ccc2[nH]1)[C@@H]1CCCN(C(=O)c2cccc3c2OCC3)C1` [Compound 100, (R)-3-((5-chloro-1H-indol-2-yl)methyl)-1-(1-(2,3-dihydrobenzofuran-7-carbonyl)piperidin-3-yl)-1-methylurea], for which the IC50 was determined as 380 nM.
